Measured values taken from ChEMBL document CHEMBL3997818, “Structure-activity relationship studies of 1-(1'-hydroxyalkyl)rupestonic acid methyl esters against influenza viruses” (Bioorg Med Chem Lett, 2017).
Converted amounts (≈) assume the structure as drawn.

Key:
[1] = Selectivity index, ratio of TC50 for MDCK cells to IC50 for Influenza B virus infected in MDCK cells; type: toxicity, cell-based; settings: dog, read-out: Selectivity Index
[2] = Selectivity index, ratio of TC50 for MDCK cells to IC50 for Influenza A virus H1N1 infected in MDCK cells; type: toxicity, cell-based; settings: dog, read-out: Selectivity Index
[3] = Cytotoxicity against MDCK cells after 48 hrs by Reed and Muench analysis; type: cell-based, Canis lupus familiaris; settings: dog, read-out: TC50
[4] = system: Influenza B virus; test: Antiviral activity against Influenza B virus infected in MDCK cells assessed as inhibition of virus-induced cytopathic effect after 40 hrs; type: functional, cell-based
[5] = system: Influenza A virus; test: Antiviral activity against Influenza A virus H1N1 infected in MDCK cells assessed as inhibition of virus-induced cytopathic effect after 40 hrs; type: functional, cell-based
[6] = Selectivity index, ratio of TC50 for MDCK cells to IC50 for Influenza A virus H3N2 infected in MDCK cells; type: toxicity, cell-based; settings: dog, read-out: Selectivity Index
[7] = system: Influenza A virus H3N2; test: Antiviral activity against Influenza A virus H3N2 infected in MDCK cells assessed as inhibition of virus-induced cytopathic effect after 40 hrs; type: functional, cell-based

| Compound | selectivity ratio [1] | selectivity ratio [2] | CC50 at 48 h [3] | IC50 [4] | IC50 [5] | selectivity ratio [6] | IC50 [7] |
| --- | --- | --- | --- | --- | --- | --- | --- |
| C=C(C(=O)OC)[C@@H]1CC[C@H](C)[C@H]2C(=C(C)C(=O)[C@@H]2[C@H](O)/C=C(\C)CCC=C(C)C)C1 | 3 | 1.7 | 3.56 µg/mL (≈ 8.59 µM) | 1.2 µg/mL (≈ 2.89 µM) | 2.06 µg/mL (≈ 4.97 µM) | 2.2 | 1.6 µg/mL (≈ 3.86 µM) |
| C=C(C(=O)OC)[C@@H]1CC[C@H](C)[C@@H]2CC(=O)C(C)=C2C1 | – | – | 55.6 µg/mL (≈ 212 µM) | > 18.5 µg/mL | > 18.5 µg/mL | 3 | 19 µg/mL (≈ 72.4 µM) |
| C=C(C(=O)OC)[C@@H]1CC[C@H](C)[C@H]2C(=C(C)C(=O)[C@@H]2[C@@H](C)O)C1 | 7 | 5 | 500 µg/mL (≈ 1630 µM) | 72 µg/mL (≈ 235 µM) | 90 µg/mL (≈ 294 µM) | – | > 167 µg/mL |
| C=C(C(=O)OC)[C@@H]1CC[C@H](C)[C@H]2C(=C(C)C(=O)[C@@H]2[C@H](O)CC)C1 | 7 | 9 | 167 µg/mL (≈ 520 µM) | 18.5 µg/mL (≈ 57.8 µM) | 14.4 µg/mL (≈ 44.8 µM) | – | > 55.6 µg/mL |
| C=C(C(=O)OC)[C@@H]1CC[C@H](C)[C@H]2C(=C(C)C(=O)[C@@H]2C(O)c2cc(F)cc(F)c2)C1 (single isomer, unassigned) | 1.7 | 12.2 | 32.1 µg/mL (≈ 79.3 µM) | 18.5 µg/mL (≈ 45.8 µM) | 2.63 µg/mL (≈ 6.5 µM) | 2.2 | 14 µg/mL (≈ 34.6 µM) |
| C=C(C(=O)OC)[C@@H]1CC[C@H](C)[C@H]2C(=C(C)C(=O)[C@@H]2C(O)c2cc(OC)c(OC)c(OC)c2)C1 (single isomer, unassigned) | – | 13 | 167 µg/mL (≈ 363 µM) | > 55.6 µg/mL | 13 µg/mL (≈ 28.4 µM) | 3 | 56 µg/mL (≈ 122 µM) |
| C=C(C(=O)OC)[C@@H]1CC[C@H](C)[C@H]2C(=C(C)C(=O)[C@@H]2C(O)c2ccc(OC)cc2)C1 (single isomer, unassigned) | 4.3 | – | 80.1 µg/mL (≈ 201 µM) | 18.5 µg/mL (≈ 46.5 µM) | > 18.5 µg/mL | – | > 18.5 µg/mL |
| C=C(C(=O)OC)[C@@H]1CC[C@H](C)[C@H]2C(=C(C)C(=O)[C@@H]2C(O)c2cccs2)C1 (single isomer, unassigned) | – | – | 8.9 µg/mL (≈ 23.8 µM) | > 2.06 µg/mL | > 2.06 µg/mL | 7.5 | 1.19 µg/mL (≈ 3.18 µM) |
| C=C(C(=O)OC)[C@@H]1CC[C@H](C)[C@H]2C(=C(C)C(=O)[C@@H]2C(O)c2ccc(F)cc2)C1 (single isomer, unassigned) | 7.5 | 4.3 | 80.1 µg/mL (≈ 207 µM) | 11 µg/mL (≈ 28.5 µM) | 19 µg/mL (≈ 49.2 µM) | – | > 18.5 µg/mL |
| C=C(C(=O)OC)[C@@H]1CC[C@H](C)[C@H]2C(=C(C)C(=O)[C@@H]2C(O)c2cc(Cl)cc(Cl)c2)C1 (single isomer, unassigned) | – | – | 10.7 µg/mL (≈ 24.4 µM) | > 6.17 µg/mL | > 6.17 µg/mL | 1.7 | 6 µg/mL (≈ 13.7 µM) |
| C=C(C(=O)OC)[C@@H]1CC[C@H](C)[C@H]2C(=C(C)C(=O)[C@@H]2C(O)c2ccccc2)C1 (single isomer, unassigned) | – | 2.1 | 12.8 µg/mL (≈ 34.8 µM) | > 6.17 µg/mL | 6.17 µg/mL (≈ 16.7 µM) | 2.1 | 6 µg/mL (≈ 16.3 µM) |
| C=C(C(=O)OC)[C@@H]1CC[C@H](C)[C@H]2C(=C(C)C(=O)[C@@H]2C(O)c2ccc([N+](=O)[O-])s2)C1 (single isomer, unassigned) | 2.1 | 2.7 | 4.28 µg/mL (≈ 10.2 µM) | 2.06 µg/mL (≈ 4.91 µM) | 1.6 µg/mL (≈ 3.81 µM) | – | > 2.06 µg/mL |
| C=C(C(=O)OC)[C@@H]1CC[C@H](C)[C@H]2C(=C(C)C(=O)[C@@H]2C(O)c2cc(C(F)(F)F)cc(C(F)(F)F)c2)C1 (single isomer, unassigned) | – | 3 | 32.1 µg/mL (≈ 63.6 µM) | > 18.5 µg/mL | 11 µg/mL (≈ 21.8 µM) | 1.7 | 18.5 µg/mL (≈ 36.7 µM) |
| C=C(C(=O)OC)[C@@H]1CC[C@H](C)[C@H]2C(=C(C)C(=O)[C@@H]2C(O)c2ccncc2)C1 (single isomer, unassigned) | 4.3 | 7.5 | 80.1 µg/mL (≈ 217 µM) | 18.5 µg/mL (≈ 50.1 µM) | 10.7 µg/mL (≈ 28.9 µM) | – | > 18.5 µg/mL |
| C=C(C(=O)OC)[C@@H]1CC[C@H](C)[C@H]2C(=C(C)C(=O)[C@@H]2C(O)c2ccc(N(C)C)cc2)C1 (single isomer, unassigned) | – | 3 | 32.1 µg/mL (≈ 78 µM) | > 18.5 µg/mL | 10.7 µg/mL (≈ 26 µM) | 1.7 | 18.5 µg/mL (≈ 45 µM) |
| C=C(C(=O)OC)[C@@H]1CC[C@H](C)[C@H]2C(=C(C)C(=O)[C@@H]2C(O)c2ccc(OC(F)(F)F)cc2)C1 (single isomer, unassigned) | – | – | 32.1 µg/mL (≈ 70.9 µM) | > 18.5 µg/mL | > 18.5 µg/mL | 1.7 | 18 µg/mL (≈ 39.8 µM) |
| CCOC(=O)C1=C[C@@H](OC(CC)CC)[C@H](NC(C)=O)[C@@H](N)C1 [OSELTAMIVIR] | – | – | – | – | 3.9 µg/mL (≈ 12.5 µM) | – | 1.7 µg/mL (≈ 5.44 µM) |
| C=C(C(=O)O)[C@@H]1CC[C@H](C)[C@@H]2CC(=O)C(C)=C2C1 [PECHUELOIC ACID] | 10 | 4.3 | 240 µg/mL (≈ 968 µM) | 24 µg/mL (≈ 96.6 µM) | 55.6 µg/mL (≈ 224 µM) | 4.3 | 55.6 µg/mL (≈ 224 µM) |
| NC(=O)c1ncn([C@@H]2O[C@H](CO)[C@@H](O)[C@H]2O)n1 [RIBAVIRIN] | 1400 | 560 | – | 0.8 µg/mL (≈ 3.28 µM) | 2.1 µg/mL (≈ 8.6 µM) | 1100 | 1.1 µg/mL (≈ 4.5 µM) |
